In PubChem BioAssay AID248 (DTP/NCI, 2004):
Values joined by “and” are separate entries in the source; they are usually repeats but may differ in a detail not shown here. Equal values may be shown once. Toxic doses and inconclusive results are not listed. No stated cut-off is given here; in the data, active means T/C of 150% or more; inactive means T/C below 125%.

Test system: L1210 leukemia ip in BDF1 mice, survival T/C
Assay: NCI In Vivo Anticancer Drug Screen. Data for tumor model L1210 Leukemia (intraperitoneal) in B6D2F1 (BDF1) mice
Conditions: endpoint: mean survival time, higher = longer survival
Outline: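 Read-out is survival time, reported as the treated-group measurement over the vehicle-control measurement.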

[1] = dose: 100.0 mg/kg/injection, schedule: Q01DX001 (ip), vehicle: saline
[2] = dose: 200.0 mg/kg/injection, schedule: Q01DX001 (ip), vehicle: saline
[3] = dose: 400.0 mg/kg/injection, schedule: Q01DX001 (ip), vehicle: saline
[4] = dose: 100.0 mg/kg/injection, schedule: Q01DX009 (ip), vehicle: Klucel (hydroxypropylcellulose) (HPC)
[5] = dose: 100.0 mg/kg/injection, schedule: Q04DX003 (ip), vehicle: Klucel (hydroxypropylcellulose) (HPC)
[6] = dose: 200.0 mg/kg/injection, schedule: Q01DX009 (ip), vehicle: Klucel (hydroxypropylcellulose) (HPC)
[7] = dose: 200.0 mg/kg/injection, schedule: Q04DX003 (ip), vehicle: Klucel (hydroxypropylcellulose) (HPC)
[8] = dose: 400.0 mg/kg/injection, schedule: Q01DX009 (ip), vehicle: Klucel (hydroxypropylcellulose) (HPC)
[9] = dose: 400.0 mg/kg/injection, schedule: Q04DX003 (ip), vehicle: Klucel (hydroxypropylcellulose) (HPC)
[10] = dose: 100.0 mg/kg/injection, schedule: Q04DX003 (ip), vehicle: saline with Tween-80
[11] = dose: 200.0 mg/kg/injection, schedule: Q04DX003 (ip), vehicle: saline with Tween-80
[12] = dose: 400.0 mg/kg/injection, schedule: Q04DX003 (ip), vehicle: saline with Tween-80
[13] = dose: 100.0 mg/kg/injection, schedule: Q04DX003 (ip), vehicle: saline
[14] = dose: 200.0 mg/kg/injection, schedule: Q04DX003 (ip), vehicle: saline
[15] = dose: 100.0 mg/kg/injection, schedule: Q01DX009 (ip), vehicle: saline with Tween-80
[16] = dose: 200.0 mg/kg/injection, schedule: Q01DX009 (ip), vehicle: saline with Tween-80
[17] = dose: 400.0 mg/kg/injection, schedule: Q01DX009 (ip), vehicle: saline with Tween-80
[18] = dose: 50.0 mg/kg/injection, schedule: Q01DX001 (ip), vehicle: saline
[19] = dose: 25.0 mg/kg/injection, schedule: Q01DX009 (ip), vehicle: saline
[20] = dose: 50.0 mg/kg/injection, schedule: Q01DX009 (ip), vehicle: saline
[21] = dose: 400.0 mg/kg/injection, schedule: Q04DX003 (ip), vehicle: saline
[22] = dose: 200.0 mg/kg/injection, schedule: Q01DX009 (ip), vehicle: saline

Measured: T/C

CCCCC(CCCC)=NNc1ccc([N+](=O)[O-])cc1[N+](=O)[O-]
inactive: [1] 96 % of control | [2] 102 % of control | [3] 107 % of control

CCC(CO)Nc1nc2ccc(Cl)cc2c2ccccc12 (centres undefined)
inactive: [4] 104 % of control | [5] 102 % of control | [6] 90 % of control | [7] 111 % of control | [8] 103 % of control | [9] 107 % of control

COC(=O)CCC(=O)c1cccc(C)c1
inactive: [10] 88 % of control | [11] 99 % of control | [12] 94 % of control

CN=C1N[N+]2=C(C)CCCC2S1 (centres undefined)
inactive: [13] 95 % of control | [14] 95 % of control

CCCCc1ccc(N=Cc2ccc(C=Nc3ccc(CCCC)cc3)cc2)cc1
inactive: [15] 92 % of control | [16] 97 % of control | [17] 94 % of control

CCOC(=O)/C(=C/c1ccc(OC)cc1)P(=O)(OCC)OCC
inactive: [18] 91 % of control | [1] 91 % of control | [2] 103 % of control | [3] 95 % of control

O=C(NOS(=O)(=O)O)c1ccccc1
inactive: dose: 25.0 mg/kg/injection, schedule: Q01DX001 (ip), vehicle: saline 94 % of control | [19] 110 % of control | dose: 25.0 mg/kg/injection, schedule: Q04DX003 (ip), vehicle: saline 98 % of control | [18] 99 % of control | [20] 97 % of control | dose: 50.0 mg/kg/injection, schedule: Q04DX003 (ip), vehicle: saline 100 % of control | [1] 100 % of control and 104 % of control | [13] 100 % of control

CN(C)/C=N\c1ncnc2c1c(C#N)cn2C1OC(CO)C(O)C1O (centres undefined)
inactive: dose: 6.25 mg/kg/injection, schedule: Q01DX009 (ip), vehicle: saline 92 % of control | dose: 12.5 mg/kg/injection, schedule: Q01DX005 (ip), vehicle: saline 109 % of control | dose: 12.5 mg/kg/injection, schedule: Q01DX009 (ip), vehicle: saline 115 % of control | dose: 25.0 mg/kg/injection, schedule: Q01DX005 (ip), vehicle: saline 101 % of control | [19] 117 % of control

CN1CC2=C(C1)C(N(C(=O)c1ccc(-c3ccccc3)cc1)C(=O)c1ccc(-c3ccccc3)cc1)=NCN2
inactive: [4] 97 % of control | [6] 94 % of control | [8] 94 % of control

Cc1c(C)c(C)c(C(=O)C[n+]2ccccc2)c(C)c1C
inactive: dose: 12.5 mg/kg/injection, schedule: Q04DX002 (ip), vehicle: saline 104 % of control | dose: 25.0 mg/kg/injection, schedule: Q04DX002 (ip), vehicle: saline 96 % of control | dose: 50.0 mg/kg/injection, schedule: Q04DX002 (ip), vehicle: saline 107 % of control

Cc1cc(C)n(/N=C/c2ccc(N(C)C)cc2)c(=O)c1C#N
inactive: [13] 95 % of control | [14] 95 % of control | [21] 95 % of control

Cc1ccccc1Sc1ncnc2nc[nH]c12
inactive: [10] 91 % of control | [11] 102 % of control | [12] 101 % of control

COc1cc(C)cc(C(=O)O)c1
inactive: dose: 100.0 mg/kg/injection, schedule: Q04DX002 (ip), vehicle: saline with Tween-80 97 % of control | dose: 200.0 mg/kg/injection, schedule: Q04DX002 (ip), vehicle: saline with Tween-80 101 % of control | dose: 400.0 mg/kg/injection, schedule: Q04DX002 (ip), vehicle: saline with Tween-80 101 % of control

O=c1[nH]cn[nH]1
inactive: dose: 100.0 mg/kg/injection, schedule: Q04DX003 (ip), vehicle: saline sonified 105 % of control | dose: 200.0 mg/kg/injection, schedule: Q04DX003 (ip), vehicle: saline sonified 114 % of control | dose: 400.0 mg/kg/injection, schedule: Q04DX003 (ip), vehicle: saline sonified 101 % of control

CNC1(C(N)=O)CCCCC1
inactive: [20] 91 % of control | [1] 102 % of control | dose: 100.0 mg/kg/injection, schedule: Q01DX009 (ip), vehicle: saline 96 % of control | [13] 100 % of control | [2] 107 % of control | [22] 106 % of control | [14] 100 % of control | [3] 104 % of control | [21] 96 % of control

Cc1c2ccccc2c(C)c2c1cc(C(=O)O)c1ccccc12
inactive: dose: 200.0 mg/kg/injection, schedule: Q04DX002 (ip), vehicle: Klucel (hydroxypropylcellulose) (HPC) 115 % of control | dose: 400.0 mg/kg/injection, schedule: Q04DX002 (ip), vehicle: Klucel (hydroxypropylcellulose) (HPC) 101 % of control

C1=C2CCCCC2OC1 (centres undefined)
inactive: dose: 75.0 mg/kg/injection, schedule: Q01DX001 (ip), vehicle: carboxymethylcellulose (CMC) 97 % of control | dose: 150.0 mg/kg/injection, schedule: Q01DX001 (ip), vehicle: carboxymethylcellulose (CMC) 98 % of control

CCC1CCC(NC(C)=O)CC1 (centres undefined)
inactive: dose: 25.0 mg/kg/injection, schedule: Q01DX001 (ip), vehicle: saline with Tween-80 96 % of control | dose: 50.0 mg/kg/injection, schedule: Q01DX001 (ip), vehicle: saline with Tween-80 108 % of control | dose: 100.0 mg/kg/injection, schedule: Q01DX001 (ip), vehicle: saline with Tween-80 94 % of control

CS(=O)(=O)CS(C)(=O)=O
inactive: dose: 100.0 mg/kg/injection, schedule: Q01DX001 (ip), vehicle: carboxymethylcellulose (CMC) 93 % of control | [4] 94 % of control | [13] 94 % of control | dose: 200.0 mg/kg/injection, schedule: Q01DX001 (ip), vehicle: carboxymethylcellulose (CMC) 93 % of control | [6] 105 % of control | [14] 98 % of control | dose: 400.0 mg/kg/injection, schedule: Q01DX001 (ip), vehicle: carboxymethylcellulose (CMC) 110 % of control | [8] 101 % of control | [21] 93 % of control

CCSC(C(O)C(O)C(O)C(O)CO)n1ccc(=O)[nH]c1=O (centres undefined)
inactive: dose: 100.0 mg/kg/injection, schedule: Q01DX001 (ip), vehicle: Klucel (hydroxypropylcellulose) (HPC) 100 % of control | [5] 88 % of control | [10] 103 % of control | dose: 200.0 mg/kg/injection, schedule: Q01DX001 (ip), vehicle: Klucel (hydroxypropylcellulose) (HPC) 100 % of control | [22] 93 % of control | [7] 93 % of control | [11] 94 % of control | dose: 400.0 mg/kg/injection, schedule: Q01DX001 (ip), vehicle: Klucel (hydroxypropylcellulose) (HPC) 102 % of control | dose: 400.0 mg/kg/injection, schedule: Q01DX009 (ip), vehicle: saline 94 % of control | [9] 87 % of control | [12] 92 % of control

COc1ccc(C=NCCN=Cc2ccc(OC)c(OC)c2)cc1OC
inactive: [1] 100 % of control | [15] 101 % of control | [13] 92 % of control | [2] 104 % of control | [16] 95 % of control | [14] 87 % of control | [3] 102 % of control | [17] 95 % of control | [21] 92 % of control

CC(=O)OC1CCCCC1c1cccc(C)c1 (centres undefined)
inactive: dose: 100.0 mg/kg/injection, schedule: Q04DX003 (ip), vehicle: acetone 110 % of control | dose: 200.0 mg/kg/injection, schedule: Q04DX003 (ip), vehicle: acetone 102 % of control | dose: 400.0 mg/kg/injection, schedule: Q04DX003 (ip), vehicle: acetone 98 % of control

CC[n+]1ccc(Cc2ccc([N+](=O)[O-])cc2)cc1
inactive: dose: 25.0 mg/kg/injection, schedule: Q01DX009 (ip), vehicle: Klucel (hydroxypropylcellulose) (HPC) 102 % of control | dose: 50.0 mg/kg/injection, schedule: Q01DX009 (ip), vehicle: Klucel (hydroxypropylcellulose) (HPC) 95 % of control | [4] 100 % of control

CCOP(=O)(OCC)C([O][Sb]([O]CC(C)Cl)[O]CC(C)Cl)c1ccc(OC)cc1 (centres undefined)
inactive: dose: 25.0 mg/kg/injection, schedule: Q04DX003 (ip), vehicle: alcohol 101 % of control | dose: 50.0 mg/kg/injection, schedule: Q04DX003 (ip), vehicle: alcohol 97 % of control | dose: 100.0 mg/kg/injection, schedule: Q04DX003 (ip), vehicle: alcohol 103 % of control and 113 % of control

CC(N)C(=O)NC1C(CO)OC(n2cnc3c(N)ncnc32)C1O (centres undefined)
inactive: [1] 105 % of control | [2] 101 % of control | [3] 101 % of control
